Molecules are shown by their SMILES. Where two headings read alike, the source gives them in different places.

The values below come from US8658801B2, “Pesticides containing a bicyclic bisamide structure” (Syngenta Crop Protection, LLC, priority 2006, dated 2014).

Series [1] relates to Aphis craccivora (Pea Aphid). Put plainly: Example B11: activity against Aphis craccivora, mixed population, systemic/feeding. The series is classed as in vivo. The settings on record: 144 h, 6 days, roots in test solution (systemic). The source says: (§1) Activity Against Aphis craccivora (Pea Aphid)
(§2) (Mixed Population, Systemic/Feeding)
(§3) 6 days later, samples are checked for mortality.

In series [2] the test system is Spodoptera littoralis (Egyptian Cotton Leafworm). Put plainly: Example B1: activity against Spodoptera littoralis, larvicide, feeding/residual contact, preventive (cotton leaf discs). In kind it is in vivo. The settings on record: foliar, 72 h, 3 days after treatment, L1 larvae.
The test system of series [3] is Myzus persicae (Green Peach Aphid). As to the kind of experiment: Example B6: activity against Myzus persicae, mixed population, systemic/feeding, curative (pea seedling roots). Particulars: 144 h, read-out: activity.
Series [4] has as its system Cydia pomonella (Codling Moth). Put plainly: Example B8: activity against Cydia pomonella (paraffin-coated diet cubes). The series is classed as in vivo. Particulars: 336 h, 14 days incubation at 26° C. The method, then:
Activity Against Cydia pomonella (Codling Moth)
Standard Cydia diet cubes (1.5 cm width) are pierced with a tooth-pick and are immersed in liquid paraffin (ca. 80° C.). After the paraffin coat has hardened, an aqueous emulsion containing 400 ppm of active ingredient is applied using a De Vilbis sprayer (25 ml, 1 bar). After the spray coating has dried, the cubes are put into plastic containers which are then populated with two freshly hatched Cydia pomonella (1st instar). The containers are then closed with a plastic cap. After 14 days incubation at 26° C. and 40-60% relative humidity, the survival rate of the caterpillars as well as their growth regulation is determined. In this test, compounds listed in Table P above show good activity. In particular compounds P.10, P.11, P.12, P.18, P.19, P.20, P.29, P.30, P.31, P.32, P.33, P.34, P.35, P.37, P.38, P.39, P.42, and P.43 show an activity of over 80% at a concentration of 400 ppm.

The subject of series [5] is Plutella xylostella (Diamond Back Moth). Put plainly: Example B3: Plutella xylostella, larvicide, feeding/residual contact, preventive (artificial diet MTP). The series is classed as in vivo. Particulars: 120 h, 5 days incubation, L2 larvae. In short, it runs like this:
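Artificial diet in multiwell plates treated with test solution, dried, then infested with 10–15 L2 larvae per well. After 5 days, larval mortality, antifeedant effect and growth regulation were scored.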

In series [6] the test system is Myzus persicae (Green Peach Aphid). As to the kind of experiment: Example B5: activity against Myzus persicae, mixed population, feeding/residual contact, preventive (sunflower leaf discs). The settings on record: foliar, 144 h, read-out: activity.
Series [7] has as its system Heliothis virescens (Tobacco Budworm). Put plainly: Example B2: activity against Heliothis virescens, ovo-larvicide, feeding/contact, curative. In kind it is in vivo. Particulars: 96 h, 4 days incubation, eggs 0-24 h old. The method, then:
Activity Against Heliothis virescens (Tobacco Budworm)
(Ovo-Larvicide, Feeding/Contact Activity, Curative)
(§4) Eggs (0-24 h old) are placed in 24-well microtiter plate on artificial diet and treated with test solutions by pipetting. After an incubation period of 4 days, samples are checked for egg mortality, larval mortality, and growth regulation.

Series [8] concerns Thrips tabaci (Onion Thrips). Put plainly: Example B7: activity against Thrips tabaci, mixed population, feeding/residual contact, preventive. The settings on record: 144 h, read-out: activity.
The test system of series [9] is Diabrotica balteata (Corn Root Worm). As to the kind of experiment: Example B4: Diabrotica balteata, larvicide, feeding/residual contact, preventive. In kind it is in vivo. The settings on record: 120 h, 5 days incubation, L2 larvae. In short, it runs like this: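 Artificial diet treated with test solution, dried, then infested with 6-10 L2 larvae per well. Larval mortality, antifeedant effect and growth regulation checked after 5 days of incubation.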

Series [10] relates to Aphis aossypii (Cotton Aphid). As to the kind of experiment: Example B13: activity against cotton aphid, mixed population, systemic/feeding. The series is classed as in vivo. Particulars: 144 h, 6 days, roots in test solution (systemic).
Description: Activity Against Aphis aossypii (Cotton Aphid)
as §2, §3

The subject of series [11] is Frankliniella occidentalis (Western Flower Thrips). Put plainly: Example B9: activity against Frankliniella occidentalis (bean leaf discs or bean plants). The series is classed as in vivo. Particulars: foliar, 6 days (leaf discs) or 14 days (plants) after infestation. An outline of the steps:
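Bean leaf discs on agar or whole bean plants sprayed with diluted test solutions, then infested with a mixed thrips population after drying. Population reduction versus untreated assessed 6 days (discs) or 14 days (plants) after infestation.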

The test system of series [12] is Aphis craccivora (Pea Aphid). Put plainly: Example B10: activity against Aphis craccivora, mixed population, contact/feeding. In kind it is in vivo. The settings on record: 144 h, 6 days after treatment, spray (contact/feeding).
Description: as §1
(Mixed Population, Contact/Feeding)
6 days after treatment, samples are checked for mortality.

Series [13] relates to Plutella xylostella (Diamond Back Moth). Put plainly: Example B14: comparison with state of the art, Plutella xylostella, larvicide, feeding/residual contact, preventive. In kind it is in vivo. The method, then:
Plutella xylostella (Diamond Back Moth)
(Larvicide, Feeding/Residual Contact Activity, Preventive)
24-well microtiter plate (MTP) with artificial diet is treated with test solutions by pipetting. After drying, the MTP's are infested with larvae (L2)(10-15 per well). After an incubation period of 5 days, samples are checked for larval mortality, antifeedant and growth regulation.

The subject of another series is Heliothis virescens. Put plainly: Example B15: comparison with state of the art, Heliothis virescens ovo-larvicide test. In kind it is in vivo. The settings on record: for inhibition at 0.8 ppm / inhibition at 3.1 ppm / inhibition at 12.5 ppm / inhibition at 50 ppm: Heliothis virescens, 96 h, read-out: Ovo-larvicidal activity (%) after 4 days. The method, then:
Activity Against Heliothis virescens (Ovo-Larvicide Test)
as §4

Setting [14] is: especially at 12.5, 3.1 and 0.8 ppm.

What is called melting point is the temperature, or range, at which the solid turns liquid. As to `C#Cc1cc2cn[nH]c2c(C(=O)NC2(C3CC3)CC2)c1NC(=O)c1cc(C(F)F)nn1-c1ncccc1Cl` [P.81], the melting point lay in the range of 218 to 221 °C.
Still for that read-out and setting: the value for `CNC(=O)c1c(NC(=O)c2cc(C(F)(F)F)nn2-c2ncccc2Cl)ccc2ncccc12` [Example 46, 6-{[2-(3-chloro-pyridin-2-yl)-5-trifluoromethyl-2H-pyrazole-3-carbonyl]-amino}-quinoline-5-carboxylic acid methylamide] was 210 to 211 °C.
With `CC(C)NC(=O)c1c(NC(=O)c2cc(C(F)(F)F)nn2-c2ncccc2Cl)ccc2cccnc12` [P.73, 7-{[2-(3-chloro-pyridin-2-yl)-5-trifluoromethyl-2H-pyrazole-3-carbonyl]-amino}-quinoline-8-carboxylic acid isopropylamide], the melting point is 225 to 226 °C.
Same read-out and setting: then `C#Cc1cc2cn[nH]c2c(C(=O)NC(C)C)c1NC(=O)c1cc(C(F)F)nn1-c1ncccc1Cl` [P.80], with 233 to 236 °C; and `C#Cc1cc2cn[nH]c2c(C(=O)NC(C)C)c1NC(=O)c1cc(C(F)(F)F)nn1-c1ncccc1Cl` [Example 34, 6-{[2-(3-chloro-pyridin-2-yl)-5-trifluoromethyl-2H-pyrazole-3-carbonyl]-amino}-5-ethynyl-1H-indazole-7-carboxylic acid isopropylamide], with 226 to 229 °C.
With `CC(C)NC(=O)c1c(NC(=O)c2cc(Br)nn2-c2ncccc2Cl)c(Cl)cc2cn[nH]c12` [P.42], the pest or weed control at 400 ppm in [1], in [2], in series [3], in series [4], in [5] and in series [6] was more than 80% throughout. For the same compound, the pest or weed control at 400 ppm in series [7], in series [8], in [9], in [10], in series [11] and in series [12] was more than 80% each time.
As for `CC(C)NC(=O)c1c(NC(=O)c2cc(Cl)nn2-c2ncccc2Cl)c(Cl)cc2cn[nH]c12` [P.43], the pest or weed control at 400 ppm in series [1], in series [2], in [3], in series [4], in [5] and in [6] was more than 80% each time. Moreover, the pest or weed control at 400 ppm in series [7], in [8], in series [9], in [10], in series [11] and in series [12] was more than 80% in each case.
On to `Cc1nc2ccccc2c(C(=O)NC(C)C)c1NC(=O)c1cc(C(F)(F)F)nn1-c1ncccc1Cl` [Compound T81.3, reference compound], for which the “Death rate (%) after 5 days” value in series [13] (0.8 ppm) amounted to 0%. Moreover, the “Death rate (%) after 5 days” value in series [13] (3.1 ppm) is recorded as 0%. In addition, the “Death rate (%) after 5 days” value in series [13] (12.5 ppm) was found to be 60%. Moreover, the “Death rate (%) after 5 days” value in series [13] (50 ppm) stood at 100%. Besides, in the series on Heliothis virescens, the inhibition at 0.8 ppm was found to be 0%, the inhibition at 3.1 ppm was 25%, the inhibition at 12.5 ppm is 65% and the inhibition at 50 ppm was determined as 80%.
As to `CCNC(=O)c1c(NC(=O)c2cc(C(F)(F)F)nn2-c2ncccc2Cl)c(Cl)cc2cn[nH]c12` [P.30], the pest or weed control at 400 ppm in series [1], in series [2], in series [3], in [4], in [5] and in series [6] was more than 80% each time. The pest or weed control at 400 ppm in series [7], in series [9], in series [10], in series [11] and in [12] was more than 80% each time.
In turn, `Cc1cc2cn[nH]c2c(C(=O)NC2(C3CC3)CC2)c1NC(=O)c1cc(C(F)F)nn1-c1ncccc1Cl` gave a melting point of 224 to 227 °C.
For the compound `COc1cc(C(=O)Nc2c(Cl)cc3cn[nH]c3c2C(=O)NC2(C3CC3)CC2)n(-c2ncccc2Cl)n1` [P.47], the pest or weed control at 400 ppm in [1], in series [2], in [3], in [5], in series [6] and in series [7] was more than 80% throughout. The pest or weed control at 400 ppm in series [8], in series [9], in series [10], in series [11] and in [12] was more than 80% throughout.
As to `Cc1cc2ncccc2c(C(=O)NC(C)C)c1NC(=O)c1cc(C(F)(F)F)nn1-c1ncccc1Cl` [P.78, 6-{[2-(3-chloro-pyridin-2-yl)-5-trifluoromethyl-2H-pyrazole-3-carbonyl]-amino}-7-methyl-quinoline-5-carboxylic acid isopropylamide], the pest or weed control at 400 ppm in [5], in series [7] and in [9] was more than 80% each time. The “Death rate (%) after 5 days” value in [13] (0.8 ppm) is 50%; in series [13] (3.1 ppm) it was 100%; in [13] (12.5 ppm) it was 100%; in series [13] (50 ppm), 100%. The “insecticidal action compared with the compound from the state of the art (T81.3)” value (in series [13] (setting [14]); with Heliothis virescens (setting [14])) was “substantially better insecticidal action” in each case. For the same compound, the inhibition at 0.8 ppm with Heliothis virescens (0.8 ppm) is 50%. For the same compound, in the series with Heliothis virescens (3.1 ppm), the inhibition at 3.1 ppm stood at 50%. The inhibition at 12.5 ppm in the series on Heliothis virescens (12.5 ppm) was 80%. Further, the inhibition at 50 ppm in the series on Heliothis virescens (50 ppm) worked out at 80%.
